Assay results published in US20260223850A1, “SUBSTITUTED PYRROLIDONE COMPOUND, PREPARATION METHOD THEREFOR, COMPOSITION AND APPLICATION THEREOF” (QINGDAO KINGAGROOT CHEMICAL COMPOUND CO., LTD., priority 2023, published 2026).

Columns and labels:
Format in all cases: in vivo
Conditions in all cases: 120 g a.i./ha, seedling stage sealing, 15 days, fresh weight control rate
[1] = test system: Huaidao (rice cultivar); assay: Seedling stage sealing experiment for water-seeding (crop safety)
Description: (§1) The activity level criteria for plant damage (i.e., growth control rate) are as follows: • Level 9: completely dead; • Level 8: growth control rate greater than or equal to 90% and less than 100%; • Level 7: growth control rate greater than or equal to 80% and less than 90%; • Level 6: growth control rate greater than or equal to 70% and less than 80%; • Level 5: growth control rate greater than or equal to 50% and less than 70%; • Level 4: growth control rate greater than or equal to 30% and less than 50%; • Level 3: growth control rate greater than or equal to 20% and less than 30%; • Level 2: growth control rate greater than or equal to 10% and less than 20%; • Level 1: growth control rate less than 10%; • Level 0: no effect.
(§2) The above growth control rates are fresh weight control rates.
(§3) Echinochloa phyllopogon, Digitaria sanguinalis, Huaidao (rice cultivar), etc. were broadcasted on the surface of nutrition bowls filled with soil and fully covered by soil. The foregoing well-prepared nutrition bowls were then placed in a cultivation box with water filled to a suitable height to keep the soil in the nutrition bowls moist. A test compound of the present invention was individually dissolved with acetone, then diluted into solution of a certain concentration using a certain amount of water, and sprayed using a spray tower. The plants were placed on a greenhouse seedbed and cultured for 15 days, and the experimental results were then collected. The compound was applied at 120, 60, 30 and 15 g a.i./ha in triplicate, and the results were averaged.

[2] = test system: Echinochloa phyllopogon; assay: Seedling stage sealing experiment for water-seeding
Description: as §1, §2, §3

[3] = test system: Echinochloa crusgalli; assay: as above
Description: as §1, §2, §3

Row | SMILES | Huaidao (rice cultivar) plant damage level [1] | Echinochloa phyllopogon activity level (growth control rate) [2] | Echinochloa crusgalli activity level (growth control rate) [3]
1 | Cc1cc(F)cc([C@H]2CN(C)C(=O)[C@@H]2C(=O)Nc2cnn(C)c2Cl)c1 [264′] | 0 | 9 | 9
2 | Cc1cc(C)cc([C@H]2CN(C)C(=O)[C@@H]2C(=O)Nc2cnn(CC(F)(F)F)c2Cl)c1 [268′] | 0 | 6 (Level 6: growth control rate greater than or equal to 70% and less than 80%) | 7 (Level 7: growth control rate greater than or equal to 80% and less than 90%)
3 | Cc1cc(C)cc([C@H]2CN(C)C(=O)[C@@H]2C(=O)Nc2cnn(C)c2F)c1 [271′] | 0 | 9 | 9
4 | Cc1cc(C)cc([C@H]2CN(C)C(=O)[C@@H]2C(=O)Nc2cnn(C)c2C)c1 [272′] | 0 | 7 (Level 7: growth control rate greater than or equal to 80% and less than 90%) | 9
5 | CCc1c(NC(=O)[C@H]2C(=O)N(C)C[C@@H]2c2cc(C)cc(C)c2)cnn1C [273′] | 0 | 6 (Level 6: growth control rate greater than or equal to 70% and less than 80%) | 9
6 | C=C(C)c1c(NC(=O)[C@H]2C(=O)N(C)C[C@@H]2c2cc(C)cc(C)c2)cnn1C [276′] | 0 | 6 (Level 6: growth control rate greater than or equal to 70% and less than 80%) | 9
7 | CN1C[C@H](c2cc(Br)cc(C(F)(F)F)c2)[C@@H](C(=O)Nc2cnn(C)c2Cl)C1=O [294′] | 0 | 7 (Level 7: growth control rate greater than or equal to 80% and less than 90%) | 9
8 | COc1cc(OC)cc([C@H]2CN(C)C(=O)[C@@H]2C(=O)Nc2cnn(C)c2Cl)c1 [302′] | 0 | 6 (Level 6: growth control rate greater than or equal to 70% and less than 80%) | 9
9 | Cc1ccc([C@H]2CN(C)C(=O)[C@@H]2C(=O)Nc2cnn(C)c2Cl)cc1C [314′] | 0 | 9 | 9
10 | CN1C[C@H](c2cc(Cl)c(Cl)c(C(F)(F)F)c2)[C@@H](C(=O)Nc2cnn(C)c2Cl)C1=O [326′] | 0 | 7 (Level 7: growth control rate greater than or equal to 80% and less than 90%) | 8 (Level 8: growth control rate greater than or equal to 90% and less than 100%)
11 | CCc1ccc([C@H]2CN(C)C(=O)[C@@H]2C(=O)Nc2cnn(C)c2Cl)s1 [338′] | 0 | 6 (Level 6: growth control rate greater than or equal to 70% and less than 80%) | 9
12 | COCc1c(NC(=O)[C@H]2C(=O)N(C)C[C@@H]2c2cccc(C)c2)cnn1C [378′] | 0 | 6 (Level 6: growth control rate greater than or equal to 70% and less than 80%) | 9
13 | C=C(C)c1c(NC(=O)[C@H]2C(=O)N(C)C[C@@H]2c2cccc(C)c2)cnn1C [379′] | 0 | 6 (Level 6: growth control rate greater than or equal to 70% and less than 80%) | 9
14 | C=CCn1ncc(NC(=O)[C@H]2C(=O)N(C)C[C@@H]2c2cccc(C)c2)c1Cl [381′] | 0 | 6 (Level 6: growth control rate greater than or equal to 70% and less than 80%) | 9
15 | CCn1ncc(NC(=O)[C@H]2C(=O)N(C)C[C@@H]2c2cccc(C)c2)c1Cl [385′] | 2 (Level 2: growth control rate greater than or equal to 10% and less than 20%) | 9 | 9
16 | COCCn1ncc(NC(=O)[C@H]2C(=O)N(C)C[C@@H]2c2cccc(C)c2)c1Cl [386′] | 0 | 6 (Level 6: growth control rate greater than or equal to 70% and less than 80%) | 9
17 | Cc1cccc([C@H]2CN(C)C(=O)[C@@H]2C(=O)Nc2cnn(C)c2F)c1 [388′] | 0 | 6 (Level 6: growth control rate greater than or equal to 70% and less than 80%) | 9
18 | Cc1cccc([C@H]2CN(C)C(=O)[C@@H]2C(=O)Nc2cnn(C)c2Br)c1 [389′] | 0 | 9 | 9
19 | Cc1cccc([C@H]2CN(C)C(=O)[C@@H]2C(=O)Nc2cnn(C)c2C#N)c1 [391′] | 0 | 9 | 9
20 | CCn1ncc(NC(=O)[C@H]2C(=O)N(C)C[C@@H]2c2cccc(C)c2)c1C1CC1 [394′] | 0 | 6 (Level 6: growth control rate greater than or equal to 70% and less than 80%) | 9
21 | Cc1cccc([C@H]2CN(C)C(=O)[C@@H]2C(=O)Nc2cn(C)nc2I)c1 [399′] | 0 | 9 | 9
22 | C=Cc1c(NC(=O)[C@H]2C(=O)N(C)C[C@@H]2c2cccc(C(F)(F)F)c2)cnn1C(F)F [406′] | 2 (Level 2: growth control rate greater than or equal to 10% and less than 20%) | 9 | 9
23 | C=C(C)c1c(NC(=O)[C@H]2C(=O)N(C)C[C@@H]2c2cccc(C(F)(F)F)c2)cnn1C [407′] | 0 | 9 | 9
24 | CCn1ncc(NC(=O)[C@H]2C(=O)N(C)C[C@@H]2c2cccc(C(F)(F)F)c2)c1C1CC1 [408′] | 0 | 9 | 9
25 | CN1C[C@H](c2cccc(C3CC3)c2)[C@@H](C(=O)Nc2cnn(C(F)F)c2Cl)C1=O [413′] | 0 | 9 | 9
26 | Cc1cc(C)cc([C@H]2CNC(=O)[C@@H]2C(=O)Nc2cnn(C)c2Cl)c1 [416′] | 0 | 6 (Level 6: growth control rate greater than or equal to 70% and less than 80%) | 9
